{
  "source": "patent US20110208118A1",
  "about": "“COMPOSITIONS AND MEANS FOR TREATING UTERINE LEIOMYOMATA, LEIOMYOMA, MYOMA, UTERINE FIBROIDS, ENDOMETRIOSIS, ADENOMYOSIS AND RELATED DISORDERS BY MIFEPRISTONE” (Bio-Pro Medical Ltd., priority 2007, published 2011)",
  "origin": "cited, not measured here",
  "system": "uterine leiomyomata",
  "key": {"[1]": {"details": "oral mifepristone doses of 5 mg-50 mg"}},
  "data": [
    {"smiles": "CC#C[C@]1(O)CC[C@H]2[C@@H]3CCC4=CC(=O)CCC4=C3[C@@H](c3ccc(N(C)C)cc3)C[C@@]21C", "note": "[mifepristone]", "values": [
      {"measurement": "Reduction in volume of leiomyomata, 10 mg vs 20 mg groups", "setting": "10 mg and 20 mg mifepristone daily for 12 weeks, women with large leiomyomata (Yang et al.)", "result": "equivalent in the two groups"},
      {"measurement": "regression in the size of uterine leiomyomata", "setting": "5, 25, and 50 mg of mifepristone daily for 12 weeks (Murphy et al.)", "result": "clinically significant regression"},
      {"measurement": "uterine and uterine fibroids size", "setting": "[1]", "result": "reduction in uterine and uterine fibroids size"},
      {"measurement": "uterine fibroids symptoms", "setting": "[1]", "result": "improvement in uterine fibroids symptoms"}
    ]}
  ]
}
